Laboratory results published in ChEMBL document CHEMBL3045927, “Synthesis of 4-methyl-1,2,3-thiadiazole derivatives via Ugi reaction and their biological activities” (2010).

Legend:
Format in all cases: functional
[1] = test system: Pyricularia grisea; test: Fungicidal activity against Magnaporthe grisea at 50 ug/ml by growth inhibition method; design: scale not given: the % may be the effect or the level left
[2] = test system: Thanatephorus cucumeris; test: Fungicidal activity against Thanatephorus cucumeris at 50 ug/ml by growth inhibition method; design: scale not given: the % may be the effect or the level left
[3] = test system: Botryosphaeria berengeriana; test: Fungicidal activity against Botryosphaeria berengeriana at 50 ug/ml by growth inhibition method; design: scale not given: the % may be the effect or the level left
[4] = test system: Alternaria solani; test: Fungicidal activity against Alternaria solani at 50 ug/ml by growth inhibition method; design: scale not given: the % may be the effect or the level left
[5] = test system: Mycosphaerella arachidis; test: Fungicidal activity against Mycosphaerella arachidis at 50 ug/ml by growth inhibition method; design: scale not given: the % may be the effect or the level left
[6] = test system: Fusarium oxysporum; test: Fungicidal activity against Fusarium oxysporum at 50 ug/ml by growth inhibition method; design: scale not given: the % may be the effect or the level left
[7] = test system: Cercospora beticola; test: Fungicidal activity against Cercospora beticola at 50 ug/ml by growth inhibition method; design: scale not given: the % may be the effect or the level left
[8] = test system: Tobacco mosaic virus; test: In vitro antiviral activity against Tobacco mosaic virus (TMV) infected tobacco leaves at 100 ug/ml
[9] = test system: Tobacco mosaic virus; test: In vitro antiviral activity against Tobacco mosaic virus (TMV) infected tobacco leaves at 500 ug/ml
[10] = test system: Phytophthora infestans; test: Fungicidal activity against Phytophthora infestans at 50 ug/ml by growth inhibition method; design: scale not given: the % may be the effect or the level left
[11] = test system: Rhizoctonia solani; test: Fungicidal activity against Rhizoctonia solani at 50 ug/ml by growth inhibition method; design: scale not given: the % may be the effect or the level left
[12] = test system: Colletotrichum lagenaria; test: Fungicidal activity against Colletotrichum lagenaria at 50 ug/ml by growth inhibition method; design: scale not given: the % may be the effect or the level left
[13] = test system: Fusarium graminearum; test: Fungicidal activity against Fusarium graminearum at 50 ug/ml by growth inhibition method; design: scale not given: the % may be the effect or the level left
[14] = test system: Nicotiana tabacum; test: Induction of systemic acquired resistance activity in TMV infected-Nicotiana tabacum (tobacco) leaves at 50 ug/ml
[15] = test system: Nicotiana tabacum; test: Induction of systemic acquired resistance activity in TMV infected-Nicotiana tabacum (tobacco) leaves at 100 ug/ml
[16] = test system: Tobacco mosaic virus; test: In vivo antiviral activity against Tobacco mosaic virus (TMV) infected tobacco leaves assessed as inactivation effect at 100 ug/ml co-treated with virus for 30 min before inoculation onto leaves measured at 2-3 days after viral challenge
[17] = test system: Tobacco mosaic virus; test: In vivo antiviral activity against Tobacco mosaic virus (TMV) infected tobacco leaves assessed as inactivation effect at 500 ug/ml co-treated with virus for 30 min before inoculation onto leaves measured at 2-3 days after viral challenge
[18] = test system: Tobacco mosaic virus; test: In vivo antiviral activity against Tobacco mosaic virus (TMV) infected tobacco leaves assessed as curative effect at 100 ug/ml treated after viral inoculation measured at 2-3 days after viral challenge
[19] = test system: Tobacco mosaic virus; test: In vivo antiviral activity against Tobacco mosaic virus (TMV) infected tobacco leaves assessed as curative effect at 500 ug/ml treated after viral inoculation measured at 2-3 days after viral challenge
[20] = test system: Tobacco mosaic virus; test: In vivo antiviral activity against Tobacco mosaic virus (TMV) infected tobacco leaves assessed as protective effect at 100 ug/ml treated 12 hr before viral inoculation measured at 2-3 days after viral challenge
[21] = test system: Tobacco mosaic virus; test: In vivo antiviral activity against Tobacco mosaic virus (TMV) infected tobacco leaves assessed as protective effect at 500 ug/ml treated 12 hr before viral inoculation measured at 2-3 days after viral challenge

Row | Structure (SMILES) | Activity [1] | Activity [2] | Activity [3] | Activity [4] | Activity [5] | Activity [6] | Activity [7] | inhibition at 100 µg/mL [8] | inhibition at 500 µg/mL [9] | Activity [10] | Activity [11] | Activity [12] | Activity [14] | Activity [15] | Activity [16] | Activity [17] | Activity [18] | Activity [19] | Activity [20] | Activity [21] | also measured
1 | Cc1ccc(N(C(=O)c2snnc2C)C(C(=O)NC2CCCCC2)c2ccccc2[N+](=O)[O-])cc1Cl (centres undefined) | 24% | 22% | 41% | 35% | 16% | 22% | 11% | 15% | 47% | 0% | 29% | 32% |  |  |  |  |  |  |  |  | 
2 | Cc1ccc(N(C(=O)c2snnc2C)C(C(=O)NC2CCCCC2)c2ccccc2C(F)(F)F)cc1F (centres undefined) | 29% | 11% | 23% | 44% | 29% |  | 75% | 33% | 48% | 53% | 37% | 47% | 57% | 45% | 26% | 39% | 13% | 30% | 49% | 51% | Activity [13]: 15%
3 | Cc1ccc(N(C(=O)c2snnc2C)C(C(=O)NC2CCCCC2)c2cccc(C(F)(F)F)c2)cc1F (centres undefined) | 14% | 74% | 85% | 100% | 71% |  | 0% | 29% | 67% | 88% | 97% | 95% | 68% | 38% | 21% | 31% | 28% | 42% | 19% | 54% | Activity [13]: 62%
4 | Cc1ccc(N(C(=O)c2snnc2C)C(C(=O)NC2CCCCC2)c2cccc([N+](=O)[O-])c2)cc1F (centres undefined) | 14% | 45% | 32% | 0% | 57% |  | 33% | 44% | 58% | 11% | 30% | 10% | 50% | 68% | 48% | 62% | 39% | 56% | 27% | 55% | Activity [13]: 28%
5 | Cc1ccc(N(C(=O)c2snnc2C)C(C(=O)NC2CCCCC2)c2ccc([N+](=O)[O-])cc2)cc1F (centres undefined) | 0% | 0% | 0% | 0% | 14% |  | 17% | 26% | 39% | 16% | 40% | 0% | 36% | 68% | 48% | 57% | 36% | 59% | 18% | 38% | Activity [13]: 34%
6 | Cc1ccc(N(C(=O)c2snnc2C)C(C(=O)NC2CCCCC2)c2ccccc2C)cc1F (centres undefined) | 57% | 16% | 53% | 44% | 79% |  | 67% | 23% | 52% | 47% | 51% | 43% | 63% | 58% | 27% | 60% | 18% | 47% | 23% | 35% | Activity [13]: 34%
7 | Cc1ccc(N(C(=O)c2snnc2C)C(C(=O)NC2CCCCC2)c2ccc(O)cc2)cc1F (centres undefined) | 14% | 14% | 0% | 0% | 36% |  | 17% | 20% | 70% | 0% | 40% | 5% | 44% | 65% | 65% | 68% | 34% | 43% | 40% | 55% | Activity [13]: 24%
8 | Cc1ccc(N(C(=O)c2snnc2C)C(C(=O)NC2CCCCC2)c2cccc(F)c2)cc1Cl (centres undefined) | 15% | 17% | 22% | 21% | 39% | 21% | 27% | 9% | 18% | 21% | 69% | 9% |  |  |  |  |  |  |  |  | 
9 | Cc1ccc(N(C(=O)c2snnc2C)C(C(=O)NC2CCCCC2)c2ccc(F)cc2)cc1Cl (centres undefined) | 25% | 12% | 26% | 37% | 26% | 0% | 27% | 15% | 16% | 35% | 67% | 5% |  |  |  |  |  |  |  |  | 
10 | Cc1ccc(N(C(=O)c2snnc2C)C(C(=O)NC2CCCCC2)c2cccc(C(F)(F)F)c2)cc1Cl (centres undefined) | 24% | 30% | 31% | 32% | 21% | 31% | 22% | 22% | 19% | 20% | 20% | 20% |  |  |  |  |  |  |  |  | 
11 | Cc1ccc(N(C(=O)c2snnc2C)C(C(=O)NC2CCCCC2)c2ccccc2)cc1F (centres undefined) | 14% | 0% | 0% | 0% | 21% |  | 33% | 19% | 19% | 5% | 28% | 14% | 69% | 54% | 11% | 29% | 47% | 81% | 41% | 49% | Activity [13]: 45%
12 | Cc1ccc(N(C(=O)c2snnc2C)C(C(=O)NC2CCCCC2)c2ccccc2)cc1Cl (centres undefined) | 40% | 17% | 22% | 32% | 61% | 25% | 36% | 19% | 24% | 32% | 63% | 9% |  |  |  |  |  |  |  |  | 
13 | Cc1ccc(N(C(=O)c2snnc2C)C(C(=O)NC2CCCCC2)c2ccccc2Cl)cc1Cl (centres undefined) | 40% | 12% | 13% | 26% | 48% | 0% | 27% | 19% | 20% | 26% | 67% | 5% |  |  |  |  |  |  |  |  | 
14 | Cc1ccc(N(C(=O)c2snnc2C)C(C(=O)NC2CCCCC2)c2cccc(Cl)c2)cc1Cl (centres undefined) | 20% | 12% | 26% | 21% | 39% | 11% | 18% | 21% | 29% | 21% | 65% | 9% |  |  |  |  |  |  |  |  | 
15 | NC(=O)c1ncn([C@@H]2O[C@H](CO)[C@@H](O)[C@H]2O)n1 [RIBAVIRIN] |  |  |  |  |  |  |  | 28% | 38% |  |  |  | 40% | 10% | 57% | 71% | 14% | 46% | 40% | 44% | 
16 | Cc1ccc(NC(=O)c2snnc2C)cc1Cl [TIADINIL] |  |  |  |  |  |  |  | 37% | 51% |  |  |  | 47% | 49% | 70% | 70% | 12% | 44% | 35% | 48% | 
